# Reference: US9855292B2, “Cyanocobalamin, methylcobalamin, and/or adenosylcobalamin to help maintain a pain-free head and pain-free body and provide defense against headaches and body pain” (priority 2013, dated 2018)
# Like-named read-outs stand apart in the source and are kept apart here.
# Key:
# [1] = tested on: migraine patients; conditions: cited from earlier work; for mean migraine severity: 0-3 scale, all subjects
# [2] = tested on: headache and body pain in humans; assay: Example 2 Phase 3 study: documented reports of headache and body pain; assay type: in vivo, human; conditions: active group
# Text: This clinical study was designed and directed by the inventor of the current patent. A large, multi-center, Phase 3, randomized, placebo-controlled clinical study on 1,551 patients was designed and directed by the inventor of the current patent. Methods: The study was titled: “A Phase 3, randomized, double-blind, placebo-controlled, parallel group study of the safety and efficacy of pre-seasonal sublingual cyanocobalamin lozenges on moderate to moderately severe seasonal allergic rhinitis in humans”. The study took place before and during the ragweed pollen season at 23 study sites in the Midwest, Northeast and Central Texas regions of the United States. Essentially all of the 23 investigators were Board Certified in Allergy/Immunology. Qualified subjects were randomized into an active or placebo group (approximately 50% and 50%) using an interactive voice recognition system (IVRS). All subjects (or their guardians) signed an Informed Consent form approved by the IRB. Each subject had three visits to the clinic. At Visit 1 and at Visit 3, they were given a physical exam (HEENT, chest, lungs, heart, vital signs, height and weight); and donated blood and urine samples for laboratory analysis. CBC and chemistry panels were run for safety analyses. The blood samples were analyzed by chemiluminescent immunoassay for the presence of ragweed specific immunoglobulin epsilon (IgE), and were assayed for cobalamins (cyanocobalamin, methylcobalamin and adenosylcobalamin) levels.
# Subjects were given their study medication, either 3.3 mg Cyanocobalamin, USP or placebo in the a.m. and p.m. Subjects were instructed to let the study drug “dissolve completely in your mouth, especially under your tongue, then swallow.”. Subjects self-administered the study medications for six consecutive weeks.
# Any adverse event (AE) or serious adverse event (SAE) was documented by the subject in a paper diary and then transcribed to the appropriate case report form (CRF) page. All SAEs were attended to by the investigator, and reported to the FDA by the sponsor. All sites were monitored multiple times by qualified monitors.
# The following types of headaches were self-diagnosed and documented by subjects in the study: tension headache, headache, migraine, increased frequency of headaches, worsening sinus migraine headache, increased headache, headache worsening, worsening of migraine, sinus headache, severe sinus headache, and sinus pressure headache.
# The following types of body pains and myasthenia were self-diagnosed and documented by subjects in the study: ear pain, earache, sore throat, sore muscles, leg cramps, myalgia, back pain, sprained ankle, ache, toothache, hip pain, finger pain, knee pain, pulled back muscle, shoulder pain, pulled hamstring, neck pain, femur pain, gum pain, sore muscle, toenail pain, sore foot, and pulled neck muscle.
# [3] = Example 2 Phase 3 study: blood serum cobalamin levels; assay type: in vivo, human; conditions: cyanocobalamin, methylcobalamin and adenosylcobalamin; 3.3 mg a.m. and p.m., six weeks
# Text: (§1) This clinical study was designed and directed by the inventor of the current patent. A large, multi-center, Phase 3, randomized, placebo-controlled clinical study on 1,551 patients was designed and directed by the inventor of the current patent. Methods: The study was titled: “A Phase 3, randomized, double-blind, placebo-controlled, parallel group study of the safety and efficacy of pre-seasonal sublingual cyanocobalamin lozenges on moderate to moderately severe seasonal allergic rhinitis in humans”. The study took place before and during the ragweed pollen season at 23 study sites in the Midwest, Northeast and Central Texas regions of the United States. Essentially all of the 23 investigators were Board Certified in Allergy/Immunology. Qualified subjects were randomized into an active or placebo group (approximately 50% and 50%) using an interactive voice recognition system (IVRS). All subjects (or their guardians) signed an Informed Consent form approved by the IRB. Each subject had three visits to the clinic. […] The blood samples were analyzed by chemiluminescent immunoassay for the presence of ragweed specific immunoglobulin epsilon (IgE), and were assayed for cobalamins (cyanocobalamin, methylcobalamin and adenosylcobalamin) levels. […]
# [4] = tested on: migraine patients; conditions: 2 mg intramuscularly every two weeks for two months, cited from earlier work
# [5] = Example 2 Phase 3 study: safety; assay type: in vivo, human; conditions: 3.3 mg a.m. and p.m., six weeks
# Text: This clinical study was designed and directed by the inventor of the current patent. A large, multi-center, Phase 3, randomized, placebo-controlled clinical study on 1,551 patients was designed and directed by the inventor of the current patent. Methods: The study was titled: “A Phase 3, randomized, double-blind, placebo-controlled, parallel group study of the safety and efficacy of pre-seasonal sublingual cyanocobalamin lozenges on moderate to moderately severe seasonal allergic rhinitis in humans”. The study took place before and during the ragweed pollen season at 23 study sites in the Midwest, Northeast and Central Texas regions of the United States. Essentially all of the 23 investigators were Board Certified in Allergy/Immunology. Qualified subjects were randomized into an active or placebo group (approximately 50% and 50%) using an interactive voice recognition system (IVRS). […] The blood samples were analyzed by chemiluminescent immunoassay for the presence of ragweed specific immunoglobulin epsilon (IgE), and were assayed for cobalamins (cyanocobalamin, methylcobalamin and adenosylcobalamin) levels.
# Any adverse event (AE) or serious adverse event (SAE) was documented by the subject in a paper diary and then transcribed to the appropriate case report form (CRF) page. […] All sites were monitored multiple times by qualified monitors.
# [6] = tested on: moderate to moderately severe seasonal allergic rhinitis in humans; assay: Example 2 Phase 3 study: allergy symptom scores; assay type: in vivo, human; conditions: Weeks 4, 5 and 6; ITT; sneezing, runny nose, nasal congestion, nasal itch and eye itch
# Text: as §1
# [7] = tested on: human subjects with demonstrated seasonal allergic rhinitis (hay fever); assay: Example 1 clinical study: reports of Headache after 21 days of study medication; assay type: in vivo; conditions: for post-treatment reports of Headache, decrease from baseline: active group
# Protocol: This clinical study was designed and directed by the inventor of the current patent. […] Subjects were given their study medication, either Cyanocobalamin, USP or placebo in the a.m. and p.m. every day for 21 consecutive days. Data on adverse events including headache was captured throughout the ten-week duration of the study. Week One was a baseline during which time no medication was administered; Weeks Two, Three and Four were the weeks during which time the subjects received their study medication; and Weeks Five through Ten were a post-treatment period during which time no medication was administered but observations of symptoms and adverse events were documented. Each time a subject felt a “Headache”, he or she reported its occurrence.
compound,measurement,setting,value
C/C1=C2/[N-][C@H]([C@H](CC(N)=O)[C@@]2(C)CCC(=O)NC[C@@H](C)OP(=O)([O-])O[C@H]2[C@@H](O)[C@@H](n3cnc4cc(C)c(C)cc43)O[C@@H]2CO)[C@]2(C)N=C(/C(C)=C3N=C(/C=C4N=C1[C@@H](CCC(N)=O)C\4(C)C)[C@@H](CCC(N)=O)[C@]\3(C)CC(N)=O)[C@@H](CCC(N)=O)[C@]2(C)CC(N)=O.[Co+3].[OH-] [hydroxocobalamin],mean migraine severity,[1]; at baseline,2.2
same,mean migraine severity,[1]; at the end of the study,2.1
same,effect on migraine,"[1]; intranasal, unblinded, open-label, 19 migraine patients",can have an effect on migraine
"5,6-dimethylbenzimidazolyl cyanocobamide [cyanocobalamin]",headache and body pain reports rated Mild,[2],63 reports
same,"headache and body pain reports rated Mild, share",[2],46.0%
same,headache and body pain reports rated Moderate,[2],68 reports
same,"headache and body pain reports rated Moderate, share",[2],49.6%
same,headache and body pain reports rated Severe,[2],6 reports
same,"headache and body pain reports rated Severe, share",[2],4.4%
same,documented reports of some type of headache and of body pain,[2]; of 294 reports in total,137 reports
same,average increase in post-treatment blood serum cobalamin levels,[3],more than 250%
same,authors' conclusion on therapeutic effect,[4],no therapeutic effect attributable to cyanocobalamin was demonstrated
same,patients reporting Considerable improvement,[4]; active n=15,2
same,patients reporting Good result,[4]; active n=15,4
same,safety / tolerability,[5],well tolerated
same,reduction in allergy symptom severity from baseline versus placebo,[6],greater for the active group than the placebo group
same,"post-treatment reports of Headache, decrease from baseline",[7]; Week Eight,−2.1
same,"post-treatment reports of Headache, decrease from baseline",[7]; Week Five,−1.4
same,"post-treatment reports of Headache, decrease from baseline",[7]; Week Nine,−3.4
same,"post-treatment reports of Headache, decrease from baseline",[7]; Week Seven,−1.4
same,"post-treatment reports of Headache, decrease from baseline",[7]; Week Six,−1.6
same,"post-treatment reports of Headache, decrease from baseline",[7]; Week Ten,−3.2
same,persistence of effect per follow-up questionnaire,"[7]; almost one year later, 43 active and 49 placebo subjects",persistence of effect lasting almost one year
same,persistence of effect after finishing the treatment,[7]; post-treatment Weeks Five through Ten,at least six weeks
same,greater reduction in the frequency of headache in the active group versus placebo,[7]; six post-treatment weeks,five out of six post-treatment weeks
